MIC and ED50 data for 27 molecules are collected here from ChEMBL document CHEMBL1136456, “Synthesis and biological evaluation of benzazepine oxazolidinone antibacterials” (2003).

A word on the ED50: it is the midpoint of the dose-response relation. A lower ED50 goes with greater potency.

In brackets after ≈: the same amount, converted by molar mass.

Common to all, as to format: functional
For assay [1], the system named is Staphylococcus aureus. Briefly: Antibacterial activity against Methicillin-suceptible Staphylococcus aureus UC9218.
Another assay concerns Streptococcus pneumoniae. Briefly: Antibacterial activity against Streptococcus pneumoniae UC9912 (S.p).
For assay [2], the system named is Staphylococcus epidermidis. Briefly: Antibacterial activity against Methicillin-resistant Staphylococcus epidermidis UC12084 (S. e).
The test system of the next assay is Enterococcus faecalis. Briefly: Antibacterial activity against Enterococcus faecalis UC9217 (E. f).
The next assay relates to Haemophilus influenzae. Briefly: Antibacterial activity against Haemophilus influenzae UC30063 (Haemophilus influenzae).
A further assay relates to Mus musculus. Briefly: Dose (administered orally) required to protect the Staphylococcus aureus infected mice was determined. The settings on record: po.
Assay [3] deals with Staphylococcus aureus. Briefly: Antibacterial activity against Methicillin-resistant Staphylococcus aureus UC6685 (S. a.).
In another assay the test system is Moraxella catarrhalis. Briefly: Antibacterial activity against Moraxella catarrhalis UC30610 (M. cat).

For `CC(=O)NC[C@H]1CN(c2ccc3c(c2)CCCN(C(C)=O)C3)C(=O)O1`, the MIC was 8 mg/L (≈ 23.2 µM) in the assay with Staphylococcus aureus [1]; 2 mg/L (≈ 5.79 µM) in the assay with Streptococcus pneumoniae; 4 mg/L (≈ 11.6 µM) in assay [2]; 8 mg/L (≈ 23.2 µM) with Enterococcus faecalis; over 64 mg/L against Haemophilus influenzae.
For the molecule `CC(=O)NC[C@H]1CN(c2ccc3c(c2)CCCN(C=O)C3)C(=O)O1`, the MIC in the assay with Staphylococcus aureus [1] is 1 mg/L (≈ 3.02 µM); against Streptococcus pneumoniae, 1 mg/L (≈ 3.02 µM); in assay [2], 2 mg/L (≈ 6.04 µM); in the assay on Enterococcus faecalis it was 2 mg/L (≈ 6.04 µM); against Haemophilus influenzae it was 32 mg/L (≈ 96.6 µM); with Staphylococcus aureus [3], 1 mg/L (≈ 3.02 µM). For the same molecule, the MIC in the assay on Moraxella catarrhalis turned out to be 4 mg/L (≈ 12.1 µM). Besides, the ED50 with Mus musculus was 8.1 mg/kg/day.
`CC(=O)NC[C@H]1CN(c2ccc3c(c2)CCN(S(C)(=O)=O)CC3)C(=O)O1`: the MIC against Staphylococcus aureus [1] was 16 mg/L (≈ 41.9 µM); in the assay on Streptococcus pneumoniae, 8 mg/L (≈ 21 µM); in assay [2], 16 mg/L (≈ 41.9 µM); against Enterococcus faecalis it was 32 mg/L (≈ 83.9 µM); with Haemophilus influenzae, 32 mg/L (≈ 83.9 µM); against Moraxella catarrhalis, over 64 mg/L.
In the case of `CC(=O)NC[C@H]1CN(c2ccc3c(c2)CCN(C(C)=O)CC3)C(=O)O1`, the MIC in the assay with Staphylococcus aureus [1] came to 4 mg/L (≈ 11.6 µM); in the assay with Streptococcus pneumoniae, 1 mg/L (≈ 2.9 µM); in assay [2], 1 mg/L (≈ 2.9 µM); in the assay on Enterococcus faecalis, 2 mg/L (≈ 5.79 µM); with Haemophilus influenzae, 64 mg/L (≈ 185 µM).
For `CC(=O)NC[C@H]1CN(c2ccc3c(c2)CCCCN3)C(=O)O1`, the MIC was 64 mg/L (≈ 211 µM) in the assay on Staphylococcus aureus [1]; 16 mg/L (≈ 52.7 µM) in the assay with Streptococcus pneumoniae; 16 mg/L (≈ 52.7 µM) in assay [2]; 64 mg/L (≈ 211 µM) against Enterococcus faecalis; over 64 mg/L in the assay on Haemophilus influenzae; 32 mg/L (≈ 105 µM) in the assay on Staphylococcus aureus [3]. Besides, in the assay with Moraxella catarrhalis, the MIC is over 64 mg/L.
Take `CC(=O)NC[C@H]1CN(c2ccc3c(c2)CCCN(C(=O)NC(C)C)C3)C(=O)O1`: the MIC against Staphylococcus aureus [1] is 64 mg/L (≈ 165 µM); in the assay with Streptococcus pneumoniae, 8 mg/L (≈ 20.6 µM); in assay [2], 32 mg/L (≈ 82.4 µM); in the assay on Enterococcus faecalis, 32 mg/L (≈ 82.4 µM); in the assay with Haemophilus influenzae, over 64 mg/L.
Regarding `CC(=O)NC[C@H]1CN(c2ccc3c(c2)CCNCC3)C(=O)O1`, the MIC against Staphylococcus aureus [1] was 32 mg/L (≈ 105 µM); in the assay on Streptococcus pneumoniae it was 8 mg/L (≈ 26.4 µM); in assay [2], 8 mg/L (≈ 26.4 µM); against Enterococcus faecalis, 32 mg/L (≈ 105 µM); in the assay with Haemophilus influenzae, over 64 mg/L; in the assay on Staphylococcus aureus [3] it was 64 mg/L (≈ 211 µM). In the assay with Moraxella catarrhalis, this molecule returned an MIC of over 64 mg/L.
For `CC(=O)NC[C@H]1CN(c2ccc3c(c2)CCCCN3C(=O)CO)C(=O)O1`, the MIC is 64 mg/L (≈ 177 µM) against Staphylococcus aureus [1]; 8 mg/L (≈ 22.1 µM) with Streptococcus pneumoniae; 8 mg/L (≈ 22.1 µM) in assay [2]; 64 mg/L (≈ 177 µM) with Enterococcus faecalis; over 64 mg/L against Haemophilus influenzae; 32 mg/L (≈ 88.5 µM) with Staphylococcus aureus [3]. This molecule also returned an MIC with Moraxella catarrhalis of over 64 mg/L.
As for `CC(=O)NC[C@H]1CN(c2ccc3c(c2)CCCCN3C(=O)OCc2ccccc2)C(=O)O1`, the MIC (against Staphylococcus aureus [1]; with Streptococcus pneumoniae; in assay [2]; in the assay on Enterococcus faecalis; in the assay with Haemophilus influenzae; against Moraxella catarrhalis) was over 64 mg/L each time.
Turning to `CC(=O)NC[C@H]1CN(c2ccc3c(c2)CCCN(C(=O)OCc2ccccc2)C3)C(=O)O1`, the MIC is 16 mg/L (≈ 36.6 µM) against Staphylococcus aureus [1]; 8 mg/L (≈ 18.3 µM) against Streptococcus pneumoniae; 16 mg/L (≈ 36.6 µM) in assay [2]; 32 mg/L (≈ 73.1 µM) in the assay on Enterococcus faecalis; over 64 mg/L in the assay on Haemophilus influenzae.
With `COC(=O)N1CCCc2cc(N3C[C@H](CNC(C)=O)OC3=O)ccc2C1`, the MIC against Staphylococcus aureus [1] is 8 mg/L (≈ 22.1 µM); with Streptococcus pneumoniae, 2 mg/L (≈ 5.53 µM); in assay [2], 2 mg/L (≈ 5.53 µM); with Enterococcus faecalis, 4 mg/L (≈ 11.1 µM); against Haemophilus influenzae, over 64 mg/L.
Regarding `CC(=O)NC[C@H]1CN(c2ccc3c(c2)CCCN(C(=O)CO)C3)C(=O)O1`, the MIC turned out to be 4 mg/L (≈ 11.1 µM) against Staphylococcus aureus [1]; 1 mg/L (≈ 2.77 µM) in the assay on Streptococcus pneumoniae; 1 mg/L (≈ 2.77 µM) in assay [2]; 4 mg/L (≈ 11.1 µM) against Enterococcus faecalis; 64 mg/L (≈ 177 µM) with Haemophilus influenzae; 4 mg/L (≈ 11.1 µM) against Staphylococcus aureus [3]. In the assay on Moraxella catarrhalis, this molecule displayed an MIC of 16 mg/L (≈ 44.3 µM).
In the case of `CC(=O)NC[C@H]1CN(c2ccc3c(c2)CCCCN3C=O)C(=O)O1`, the MIC was 2 mg/L (≈ 6.04 µM) against Staphylococcus aureus [1]; under 0.05 mg/L against Streptococcus pneumoniae; under 0.05 mg/L in assay [2]; 2 mg/L (≈ 6.04 µM) with Enterococcus faecalis; 16 mg/L (≈ 48.3 µM) against Haemophilus influenzae; 2 mg/L (≈ 6.04 µM) against Staphylococcus aureus [3]. This molecule also gave an MIC in the assay on Moraxella catarrhalis of 4 mg/L (≈ 12.1 µM).
In the case of `CC(=O)NC[C@H]1CN(c2ccc3c(c2)CCN(C(=O)Cc2ccccc2)CC3)C(=O)O1`, the MIC was 4 mg/L (≈ 9.49 µM) in the assay on Staphylococcus aureus [1]; 1 mg/L (≈ 2.37 µM) in the assay on Streptococcus pneumoniae; 1 mg/L (≈ 2.37 µM) in assay [2]; 2 mg/L (≈ 4.74 µM) against Enterococcus faecalis; over 64 mg/L in the assay on Haemophilus influenzae.
Take `CC(=O)NC[C@H]1CN(c2ccc3c(c2)NCCCC3)C(=O)O1`: the MIC is 32 mg/L (≈ 105 µM) against Staphylococcus aureus [1]; 8 mg/L (≈ 26.4 µM) in the assay with Streptococcus pneumoniae; 8 mg/L (≈ 26.4 µM) in assay [2]; 32 mg/L (≈ 105 µM) with Enterococcus faecalis; over 64 mg/L in the assay on Haemophilus influenzae; 16 mg/L (≈ 52.7 µM) against Staphylococcus aureus [3]. In the assay with Moraxella catarrhalis, the MIC was over 64 mg/L.
On to `CC(=O)NC[C@H]1CN(c2ccc3c(c2)CCN(C(=O)CO)CC3)C(=O)O1`, for which the MIC in the assay with Staphylococcus aureus [1] is 2 mg/L (≈ 5.53 µM); in the assay with Streptococcus pneumoniae, under 0.05 mg/L; in assay [2], 1 mg/L (≈ 2.77 µM); in the assay with Enterococcus faecalis it was 4 mg/L (≈ 11.1 µM); against Haemophilus influenzae, 32 mg/L (≈ 88.5 µM); with Staphylococcus aureus [3], 2 mg/L (≈ 5.53 µM). Moreover, in the assay on Moraxella catarrhalis, the MIC came out at 8 mg/L (≈ 22.1 µM). The molecule further had an ED50 with Mus musculus of 8.5 mg/kg/day.
On to `CC(=O)NC[C@H]1CN(c2ccc3c(c2)CCN(C(=O)OCc2ccccc2)CC3)C(=O)O1`, for which the MIC is 4 mg/L (≈ 9.14 µM) in the assay on Staphylococcus aureus [1]; under 0.05 mg/L in the assay with Streptococcus pneumoniae; 1 mg/L (≈ 2.29 µM) in assay [2]; 4 mg/L (≈ 9.14 µM) against Enterococcus faecalis; over 64 mg/L with Haemophilus influenzae; 2 mg/L (≈ 4.57 µM) in the assay on Staphylococcus aureus [3]. The same molecule displayed an MIC in the assay on Moraxella catarrhalis of 16 mg/L (≈ 36.6 µM).
For `CC(=O)NC[C@H]1CN(c2ccc3c(c2)CCN(C(=O)c2ccccc2)CC3)C(=O)O1`, the MIC in the assay on Staphylococcus aureus [1] was 8 mg/L (≈ 19.6 µM); with Streptococcus pneumoniae, 1 mg/L (≈ 2.45 µM); in assay [2] it was 1 mg/L (≈ 2.45 µM); against Enterococcus faecalis it was 2 mg/L (≈ 4.91 µM); against Haemophilus influenzae it was over 64 mg/L.
With `COC(=O)N1CCc2ccc(N3C[C@H](CNC(C)=O)OC3=O)cc2CC1`, the MIC with Staphylococcus aureus [1] was 4 mg/L (≈ 11.1 µM); against Streptococcus pneumoniae it was 1 mg/L (≈ 2.77 µM); in assay [2], 1 mg/L (≈ 2.77 µM); with Enterococcus faecalis, 2 mg/L (≈ 5.53 µM); against Haemophilus influenzae, over 64 mg/L.
Take `CC(=O)NC[C@H]1CN(c2ccc3c(c2)CCCNC3)C(=O)O1`: the MIC against Staphylococcus aureus [1] was over 64 mg/L; in the assay on Streptococcus pneumoniae, 8 mg/L (≈ 26.4 µM); in assay [2], 32 mg/L (≈ 105 µM); in the assay with Enterococcus faecalis, over 64 mg/L; against Haemophilus influenzae, over 64 mg/L; against Moraxella catarrhalis, over 64 mg/L.
`CC(=O)NC[C@H]1CN(c2ccc3c(c2)N(C=O)CCCC3)C(=O)O1`: the MIC (in the assay on Staphylococcus aureus [1]; in the assay on Streptococcus pneumoniae; in assay [2]; in the assay with Enterococcus faecalis; against Haemophilus influenzae; in the assay with Moraxella catarrhalis) was over 64 mg/L in each case.
On to `CC(=O)NC[C@H]1CN(c2ccc3c(c2)CCCN(C(=O)Nc2ccccc2)C3)C(=O)O1`, for which the MIC in the assay on Staphylococcus aureus [1] was 16 mg/L (≈ 37.9 µM); against Streptococcus pneumoniae, 1 mg/L (≈ 2.37 µM); in assay [2], 4 mg/L (≈ 9.47 µM); in the assay on Enterococcus faecalis it was 4 mg/L (≈ 9.47 µM); in the assay on Haemophilus influenzae, 64 mg/L (≈ 151 µM).
Turning to `CC(=O)NC[C@H]1CN(c2ccc3c(c2)CCCN(C(=O)Cc2ccccc2)C3)C(=O)O1`, the MIC against Staphylococcus aureus [1] was 32 mg/L (≈ 75.9 µM); against Streptococcus pneumoniae, 4 mg/L (≈ 9.49 µM); in assay [2], 8 mg/L (≈ 19 µM); in the assay with Enterococcus faecalis, 16 mg/L (≈ 38 µM); with Haemophilus influenzae, over 64 mg/L.
In the case of `CC(=O)NC[C@H]1CN(c2ccc3c(c2)CCN(C=O)CC3)C(=O)O1`, the MIC against Staphylococcus aureus [1] was 4 mg/L (≈ 12.1 µM); in the assay with Streptococcus pneumoniae it was under 0.05 mg/L; in assay [2] it was under 0.05 mg/L; with Enterococcus faecalis, 4 mg/L (≈ 12.1 µM); against Haemophilus influenzae it was over 64 mg/L; in the assay on Staphylococcus aureus [3], 2 mg/L (≈ 6.04 µM). The same molecule displayed an MIC in the assay on Moraxella catarrhalis of 8 mg/L (≈ 24.1 µM).
As to `CC(=O)NC[C@H]1CN(c2ccc3c(c2)CCN(C(=O)Oc2ccccc2)CC3)C(=O)O1`, the MIC is 4 mg/L (≈ 9.45 µM) in the assay with Staphylococcus aureus [1]; 2 mg/L (≈ 4.72 µM) against Streptococcus pneumoniae; 2 mg/L (≈ 4.72 µM) in assay [2]; 4 mg/L (≈ 9.45 µM) against Enterococcus faecalis; over 64 mg/L against Haemophilus influenzae.
For the molecule `CC(=O)NC[C@H]1CN(c2ccc3c(c2)CCCN(C(=O)NCCc2ccccc2)C3)C(=O)O1`, the MIC in the assay with Staphylococcus aureus [1] was 64 mg/L (≈ 142 µM); with Streptococcus pneumoniae, 8 mg/L (≈ 17.8 µM); in assay [2], 32 mg/L (≈ 71 µM); against Enterococcus faecalis, 32 mg/L (≈ 71 µM); with Haemophilus influenzae it was over 64 mg/L.
Molecule `CC(=O)NC[C@H]1CN(c2ccc(N3CCOCC3)c(F)c2)C(=O)O1` [LINEZOLID] yielded an ED50 in the assay with Mus musculus of 5.6 mg/kg/day. Moreover, the MIC in assay [2] was 1 mg/L (≈ 2.96 µM); against Haemophilus influenzae, 16 mg/L (≈ 47.4 µM); in the assay on Moraxella catarrhalis, 8 mg/L (≈ 23.7 µM).
